Data from EP4810020A1, “NANOPARTICLE ADIPOSOME ENCAPSULATING HYDROPHOBIC SMALL-MOLECULE DRUG, PREPARATION METHOD THEREFOR, AND USE THEREOF” (WeCareLife Biotech Co., Ltd., priority 2023, dated 2025).
Like-named read-outs stand apart in the source and are kept apart here. Square brackets hold non-standard residues; d marks the D form. Peptide text beside a SMILES is read from it. * marks the point of attachment. Dolaproine = CO[C@@H]([C@@H]1CCCN1)[C@@H](C)C(=O)O; Dil = CC[C@H](C)[C@H](NC)[C@@H](CC(=O)O)OC; X1 = C[C@@H](N*)[C@@H](O)c1ccccc1; NMeV = CN[C@H](C(=O)O)C(C)C

Key:
[1] = dissolution / appearance in PBS
Description: Paclitaxel and the prepared paclitaxel adiposomes were dissolved in PBS, respectively.

[2] = cited from earlier work

Row | SMILES | solubility / state in PBS ([1]; in PBS) | logP [2] | solubility / state in PBS [1]
1 | CC[C@@]1(O)C(=O)OCc2c1cc1n(c2=O)Cc2cc3ccccc3nc2-1 [Camptothecin] | very low solubility in PBS | 1.9 | 
2 | C=CCc1ccc(O)c(-c2ccc(O)c(CC=C)c2)c1 [Honokiol] |  |  | very low solubility in PBS
3 | CC(=O)O[C@H]1C(=O)[C@@]2(C)[C@H]([C@H](OC(=O)c3ccccc3)[C@]3(O)C[C@H](OC(=O)[C@H](O)[C@@H](NC(=O)c4ccccc4)c4ccccc4)C(C)=C1C3(C)C)[C@]1(OC(C)=O)CO[C@@H]1C[C@@H]2O [Paclitaxel] | very low solubility in PBS |  | 
4 | CC[C@H](C)[C@@H]([C@@H](CC(=O)N1CCC[C@H]1[C@H](OC)[C@@H](C)C(=O)N[C@H](C)[C@@H](O)c1ccccc1)OC)N(C)C(=O)[C@@H](NC(=O)[C@@H](NC)C(C)C)C(C)C [Monomethyl auristatin E] (H-[NMeV]V[Dil][Dolaproine]-X1) | very low solubility in PBS | 3.4 | 
